Test results published in patent EP4752152A1, “STEROID COMPOUND, AND PREPARATION METHOD THEREFOR AND USE THEREOF” (Cholesgen (Shanghai) Co.Ltd., priority 2023, dated 2025).
pIC50: −log10 of the molar value. Values after ≈ are worked out from the molar mass of the structure shown. Read-outs that look alike come from different tables or passages of the source.

Legend:
SREBP pathway = experiment: SREBP luciferase reporter gene system (SRE-luciferase assay); type: cell-based, human; settings: Huh-7/SRE-luc cells, sterol-deficient medium, 0.01-10 µM
In short: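 Huh-7 cells stably carrying LDLR promoter-luciferase plus GFP were treated 16 h in sterol-deficient medium (5% lipoprotein-deficient serum, 2 µM lovastatin, 10 µM mevalonic acid) at 0.01–10 µM. Luciferase/GFP ratio measured as pathway activity; inhibition versus DMSO fitted to a four-parameter model for IC50.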

[1] = Metabolic stability experiment of mouse liver microsomes; type: in vitro ADME
Experimental: PB solution (100 mM), MgCl2 solution (300 mM), NADPH solution (2.04 mM), and mouse liver microsome (SHQY catalog number: M1000, batch number: 2110330) solution (1.00 mg/mL) were prepared respectively. […] Then, 100 µL of mouse liver microsome solution was added to a 96-well sample plate. For the 0 min sample, acetonitrile solution containing the internal standard was first added; then, 2 µL of 100 µM working solution was added; followed by the addition of 98 µL of pre-warmed 2.04 mM NADPH at 37°C. For the 5 min, 15 min, 30 min, 45 min, and 60 min samples, 2 µL of 100 µM working solution was first added; followed by the addition of 98 µL of pre-warmed 2.04 mM NADPH at 37°C to initiate the reaction; upon reaching the respective time points, a solution of acetonitrile containing the internal standard was added to terminate the reaction. For the NCF60 sample, 2 µL of 100 µM working solution was first added; followed by the addition of 98 µL of pre-warmed PB at 37°C to initiate the reaction; upon reaching the respective time points, a solution of acetonitrile containing the internal standard was added to terminate the reaction. During the experiment, all samples were incubated in a 37°C water bath. All samples were shaken on an oscillator at 800 rpm for 10 min, then centrifuged at 3200 g for 20 min. The supernatant was aspirated, diluted with deionized water at the corresponding ratio, and analyzed by LC-MS/MS. The remaining percentage of the compound at each time point was obtained by dividing the peak area ratio of the compound at 5, 15, 30, 45, and 60 min by the peak area ratio at 0 min. The half-life (T1/2) of the compound was then calculated using Excel. Table 2: Mouse liver microsome stability results of compounds from some examples

[2] = system: Fatty Acid Synthase (FASN) gene; experiment: Inhibition of FASN gene expression (qPCR) in Huh-7 cells; type: cell-based, human; settings: Huh-7 cells, starvation medium, 16 hours, qPCR, class symbols, read-out: FASN IC50
In short: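 Huh-7 cells switched to starvation DMEM (5% LPDS, 2 µM lovastatin, 10 µM mevalonate) and treated 16 h with compound, top 3000 nM, 3-fold dilutions, 5 concentrations. FASN mRNA by RT-qPCR; inhibition relative to DMSO, IC50 from four-parameter fit.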

[3] = Solubility in fasted-state simulated intestinal fluid (FaSSIF); type: physicochemical; settings: FaSSIF, pH 6.5, fassif, kinetic from dmso stock, FaSSIF pH 6.5, 300 µM sample solution, room temperature
Experimental: Compound powder was dissolved in DMSO to prepare a 10.0 mM stock solution for later use. 0.021 g NaOH, 0.198 g NaH2PO4, and 0.309 g NaCl were weighed and added to 50.0 mL of ultrapure water. After thorough mixing, the pH was adjusted to 6.5 using HCl or NaOH. Then, 0.112 g of FaSSIF powder was added. After complete dissolution, the solution was allowed to stand at room temperature for 2 hours for later use. A certain volume of the compound stock solution was added to a certain volume of FaSSIF to prepare a 300 µM sample solution, which was mixed at room temperature under 1000 rpm for 1 hour. After 1 hour, the sample was centrifuged, and a certain volume of supernatant was taken. The termination solution was added to precipitate the sample, which was then thoroughly mixed and centrifuged for 20 minutes. The supernatant was then taken again, diluted with dilution solution, and then analyzed by liquid chromatography-tandem mass spectrometry (LC-MS/MS). The concentration of the test compound in the samples was quantitatively determined using LC-MS/MS. Table 3: FaSSIF solubility results of compounds from some examples

SMILES | IC50 (SREBP pathway; Homo sapiens, Huh-7, 16 h) [µM] | half-life at 1 µM [1] [h] | pIC50 ([2]; Homo sapiens, Huh-7, 16 h) | IC50 (SREBP pathway; 16 hours) [µM] | solubility at 1 h [3] [µM] | pIC50 [2]
COc1cccc([C@@H](O)CCC[C@@H](C)[C@H]2CC[C@H]3[C@H]4[C@H](CC[C@]23C)[C@@]2(C)CC[C@H](O)[C@H](O)[C@@H]2CC4(F)F)c1OC [Compound 70, (1R,3aS,3bS,5aR,6R,7S,9aR,9bS,11aR)-1-[(2R,6S)-6-(2,3-dimethoxyphenyl)-6-hydroxyhexan-2-yl]-4,4-difluoro-9a,11a-dimethylhexadecahydro-1H-cyclopenta[1,2-a]phenanthrene-6,7-diol] | 0.211 | 0.581 | > 6.70 | – | – | –
C[C@H](CCCC(O)c1c(F)cccc1F)[C@H]1CC[C@H]2[C@H]3[C@H](CC[C@]12C)[C@@]1(C)CC[C@H](O)CC1CC3(F)F (stereo in doubt) [Compound 87, (1R,3aS,3bR,7S,9aS,9bS,11aR)-1-[(2R)-6-(2,6-difluorophenyl)-6-hydroxyhexan-2-yl]-4,4-difluoro-9a,11a-dimethylhexadecahydro-1H-cyclopenta[1,2-a]phenanthren-7-ol] | 0.055 | 2.26 | > 6.70 | – | – | –
C[C@H](CCCC(O)c1cccc2c1OC(F)(F)O2)[C@H]1CC[C@H]2[C@H]3[C@H](CC[C@]12C)[C@@]1(C)CC[C@H](O)[C@H](O)[C@@H]1CC3(F)F (single isomer, unassigned) [Compound 195, (1R,3aS,3bS,5aR,6R,7S,9aR,9bS,11aR)-1-[(2R,6R)-6-(2,2-difluorobenzo[d][1,3]dioxol-4-yl)-6-hydroxyhexan-2-yl]-4,4-difluoro-9a,11a-dimethylhexadecahydro-1H-cyclopenta[1,2-a]phenanthrene-6,7-diol or (1R,3aS,3bS,5aR,6R,7S,9aR,9bS,11aR)-1-[(2R,6S)-6-(2,2-difluorobenzo[d][1,3]dioxol-4-yl)-6-hydroxyhexan-2-yl]-4,4-difluoro-9a,11a-dimethylhexadecahydro-1H-cyclopenta[1,2-a]phenanthrene-6,7-diol] | – | – | – | 0.067 | 244 (≈ 143 µg/mL) | > 6.70
COc1ccccc1C(O)CCC[C@@H](C)[C@H]1CC[C@H]2[C@H]3[C@H](CC[C@]12C)[C@@]1(C)CC[C@H](O)CC1CC3(F)F (stereo partly drawn) [Compound 72, (1R,3aS,3bR,7S,9aS,9bS,11aR)-4,4-difluoro-1-[(2R)-6-hydroxy-6-(2-methoxyphenyl)hexan-2-yl]-9a,11a-dimethylhexadecahydro-1H-cyclopenta[1,2-a]phenanthren-7-ol] | 0.14 | 1.38 | > 6.70 | – | – | –
COc1cc(F)ccc1C(O)CCC[C@@H](C)[C@H]1CC[C@H]2C3=C(F)C[C@H]4[C@@H](O)[C@@H](O)CC[C@]4(C)[C@H]3CC[C@]12C (stereo partly drawn) [Compound 36, (1R,3aR,5aR,6R,7S,9aR,9bR,11aR)-4-fluoro-1-[(2R)-6-(4-fluoro-2-methoxyphenyl)-6-hydroxyhexan-2-yl]-9a,11a-dimethyl-2,3,3a,5,5a,6,7,8,9,9a,9b,10,11,11a-tetradecahydro-1H-cyclopenta[1,2-a]phenanthrene-6,7-diol] | 0.2 | > 3.1 | – | – | – | –
COc1nc(F)ccc1C(O)CCC[C@@H](C)[C@H]1CC[C@H]2[C@H]3[C@H](CC[C@]12C)[C@@]1(C)CC[C@H](O)[C@H](O)[C@@H]1CC3(F)F (single isomer, unassigned) [Compound 188, (1R,3aS,3bS,5aR,6R,7S,9aR,9bS,11aR)-4,4-difluoro-1-[(2R,6S)-6-(6-fluoro-2-methoxypyridin-3-yl)-6-hydroxyhexan-2-yl]-9a,11a-dimethylhexadecahydro-1H-cyclopenta[1,2-a]phenanthrene-6,7-diol or (1R,3aS,3bS,5aR,6R,7S,9aR,9bS,11aR)-4,4-difluoro-1-[(2R,6R)-6-(6-fluoro-2-methoxypyridin-3-yl)-6-hydroxyhexan-2-yl]-9a,11a-dimethylhexadecahydro-1H-cyclopenta[1,2-a]phenanthrene-6,7-diol] | – | – | > 6.70 | 0.142 | 139 (≈ 76.9 µg/mL) | –
C[C@H](CCCC(O)c1cccc2c1nnn2C)[C@H]1CC[C@H]2[C@H]3[C@H](CC[C@]12C)[C@@]1(C)CC[C@H](O)[C@H](O)[C@@H]1CC3(F)F (stereo partly drawn) [Compound 272, (1R,3aS,3bS,5aR,6R,7 S,9aR,9bS,11aR)-4,4-Difluoro-1-[(2R)-6-hydroxy-6-(1-methylbenzo[d][1,2,3]triazol-4-yl)hexan-2-yl]-9a,11a-dimethylhexadecahyd ro-1H-cyclopenta[1,2-a]phenanthrene-6,7-diol] | 0.116 | – | > 6.70 | – | 225 (≈ 126 µg/mL) | –
COc1cccc(F)c1C(O)CCC[C@@H](C)[C@H]1CC[C@H]2[C@@H]3CC[C@H]4[C@@H](O)[C@@H](O)CC[C@]4(C)[C@H]3CC[C@]12C (stereo partly drawn) [Compound 20, 24-[(2-Fluoro-6-methoxyphenyl)(hydroxy)methyl]-5α-cholane-3β,4β-diol] | 0.23 | 0.498 | – | – | – | –
C[C@H](CCC1CC(N)C1)[C@H]1CC[C@H]2[C@@H]3CC[C@H]4C[C@@H](O)CC[C@]4(C)[C@H]3CC[C@]12C (stereo partly drawn) [Compound 136, (20R)-20-[2-(3-aminocyclobutyl)ethyl]-5α-pregnan-3β-ol] | – | 1.6 | – | – | – | –
COc1nccc(F)c1C(O)CCC[C@@H](C)[C@H]1CC[C@H]2[C@H]3[C@H](CC[C@]12C)[C@@]1(C)CC[C@H](O)[C@H](O)[C@@H]1CC3(F)F (stereo partly drawn) [Compound 126, (1R,3aS,3bS,5aR,6R,7S,9aR,9bS,11aR)-4,4-difluoro-1-[(2R)-6-(4-fluoro-2-methoxypyridin-3-yl)-6-hydroxyhexan-2-yl]-9a,11a-dimethylhexadecahydro-1H-cyclopenta[1,2-a]phenanthrene-6,7-diol] | 0.153 | 1.79 | – | – | – | –
COc1cc(F)nc(F)c1[C@@H](O)CCC[C@@H](C)[C@H]1CC[C@H]2[C@H]3[C@H](CC[C@]12C)[C@@]1(C)CC[C@H](O)[C@H](O)[C@@H]1CC3(F)F (single isomer, unassigned) [Compound 234] | 0.029 | – | > 6.70 | – | 49.3 (≈ 28.2 µg/mL) | –
COc1nc(F)ccc1[C@H](O)CC[C@@H](C)[C@H]1CC[C@H]2[C@H]3[C@H](CC[C@]12C)[C@@]1(C)CC[C@H](O)[C@H](O)[C@@H]1CC3(F)F [Compound 338, (1R,3aS,3bS,5aR,6R,7S,9aR,9bS,11aR)-4,4-difluoro-1-[(2R,5R)-5-(6-fluoro-2-methoxypyridin-3-yl)-5-hydroxypentan-2-yl]-9a,11a-dimethylhexadecahydro-1H-cyclopenta[1,2-a]phenanthrene-6,7-diol] | 0.143 | – | > 6.70 | – | 34.7 (≈ 18.7 µg/mL) | –
COc1cc(F)nc(OC)c1[C@@H](O)CCC[C@@H](C)[C@H]1CC[C@H]2[C@H]3[C@H](CC[C@]12C)[C@@]1(C)CC[C@H](O)[C@H](O)[C@@H]1CC3(F)F (single isomer, unassigned) [Compound 263] | 0.032 | – | > 6.70 | – | 63 (≈ 36.8 µg/mL) | –
COc1nc(F)ccc1[C@@H](O)CC[C@@H](C)[C@H]1CC[C@H]2[C@H]3[C@H](CC[C@]12C)[C@@]1(C)CC[C@H](O)[C@H](O)[C@@H]1CC3(F)F [Compound 337, (1R,3aS,3bS,5aR,6R,7S,9aR,9bS,11aR)-4,4-difluoro-1-[(2R,5S)-5-(6-fluoro-2-methoxypyridin-3-yl)-5-hydroxypentan-2-yl]-9a,11a-dimethylhexadecahydro-1H-cyclopenta[1,2-a]phenanthrene-6,7-diol] | 0.155 | – | > 6.70 | – | 246 (≈ 133 µg/mL) | –
